Earlier results, collected in patent publication US20250082624A1, “METHODS OF TREATING COGNITIVE IMPAIRMENT” (NeuroTherapia, Inc., priority 2023, published 2025).

Test system: rats
Conditions: intracerebroventricular administration; cited from earlier work

## Cc1c(C(=O)c2cccc3ccccc23)c2cccc3c2n1[C@H](CN1CCOCC1)CO3 [WIN 55,212-2]
  Aβ-induced microglial activation, cognitive impairment, loss of neuronal markers: prevented A13-induced microglial activation, cognitive impairment, and loss of neuronal markers
